In ChEMBL document CHEMBL1201862, “PubChem BioAssay data set” (2004):
Calls of active or inactive are those of the source. No stated cut-off is given here; in the data, actives have a measured IC50 and inactives only a lower limit.

Target: Envelope glycoprotein gp160 (Human immunodeficiency virus 1, UniProt Q6QLK5)
Assay: cell-free HIV fusion peptide-binding blockers – biochemical, uHTS, fluorescence dequenching, […] (AID 1986)

Sequence of Envelope glycoprotein gp160 (Q6QLK5 whole entry, the tested form may be a part): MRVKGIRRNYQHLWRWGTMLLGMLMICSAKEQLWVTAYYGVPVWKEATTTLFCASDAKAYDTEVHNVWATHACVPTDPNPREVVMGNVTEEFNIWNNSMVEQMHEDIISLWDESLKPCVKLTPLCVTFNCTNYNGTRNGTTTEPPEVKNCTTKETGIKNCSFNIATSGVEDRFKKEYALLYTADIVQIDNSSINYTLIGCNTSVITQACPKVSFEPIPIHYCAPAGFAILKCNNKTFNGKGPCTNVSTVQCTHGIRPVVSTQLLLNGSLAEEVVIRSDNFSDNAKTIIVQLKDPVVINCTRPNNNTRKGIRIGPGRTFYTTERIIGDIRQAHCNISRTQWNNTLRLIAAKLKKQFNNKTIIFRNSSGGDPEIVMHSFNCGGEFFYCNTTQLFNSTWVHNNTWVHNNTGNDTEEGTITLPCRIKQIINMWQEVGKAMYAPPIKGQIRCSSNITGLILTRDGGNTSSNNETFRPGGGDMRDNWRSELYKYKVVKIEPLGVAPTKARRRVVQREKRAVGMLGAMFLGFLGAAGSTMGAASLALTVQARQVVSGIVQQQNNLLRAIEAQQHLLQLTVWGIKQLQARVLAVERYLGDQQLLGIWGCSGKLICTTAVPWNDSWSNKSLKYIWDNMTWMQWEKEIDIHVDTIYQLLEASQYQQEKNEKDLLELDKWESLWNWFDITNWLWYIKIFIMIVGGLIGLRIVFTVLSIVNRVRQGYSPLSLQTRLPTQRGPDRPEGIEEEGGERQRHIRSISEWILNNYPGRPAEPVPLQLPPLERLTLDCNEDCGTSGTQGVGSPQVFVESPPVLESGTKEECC

Cc1ccccc1C(=O)Nc1cccc(C(=O)N/N=C/c2cc(Cl)cc([N+](=O)[O-])c2O)c1
IC50: 31.3 µM (active)
